Data as given in PubChem BioAssay (NCI).
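Cultured in 96-well plates, cells were exposed to test compound for 48 hours across five concentrations. GI50 is the concentration that inhibits growth by half. TGI is the concentration that stops growth completely.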

What was measured:
Assay in all cases: NCI-60 cell line screen, 48 h
MDA-MB-231 breast = system: MDA-MB-231 breast
DLD-1 colon = system: DLD-1 colon
HOP-18 NSCLC = system: HOP-18 NSCLC
LXFL 529 NSCLC = system: LXFL 529 NSCLC
MDA-N = system: MDA-N
M19-MEL melanoma = system: M19-MEL melanoma
DMS 114 small cell lung = system: DMS 114 small cell lung
SNB-78 CNS = system: SNB-78 CNS
RXF-631 renal = system: RXF-631 renal

Row | SMILES | TGI (MDA-MB-231 breast) | TGI (DLD-1 colon) | TGI (HOP-18 NSCLC) | TGI (LXFL 529 NSCLC) | TGI (MDA-N) | TGI (M19-MEL melanoma) | TGI (DMS 114 small cell lung) | TGI (SNB-78 CNS) | TGI (RXF-631 renal) | GI50 (MDA-N)
1 | CC(=O)/C(C)=N/NC(=O)c1ccccc1O | > 100 µM | > 10 µM | > 10 µM | > 10 µM | > 100 µM | > 10 µM | > 10 µM | > 10 µM | > 10 µM | –
2 | COc1cc2c(c(OC)c1OC)-c1ccc(OC)c(=O)cc1[C@@H](NC(=O)c1ccccc1)CC2 | 15.7 µM | > 100 µM | > 100 µM | > 100 µM | < 0.003 µM | > 100 µM | < 0.016 µM | 38.7 µM | > 48.3 µM | < 0.003 µM
3 | O=C1C2C3C=C4c5ccccc5N(c5ccccc5)C4(C2C(=O)N1Cc1ccccc1)C1C(=O)N(Cc2ccccc2)C(=O)C31 (stereo unspecified) | – | > 100 µM | > 100 µM | > 100 µM | – | > 100 µM | > 100 µM | > 100 µM | > 100 µM | –
